{
  "source": "patent US20260014358A1",
  "about": "“THERMALLY REGULATED TRANSDERMAL DRUG DELIVERY SYSTEM” (Morningside Venture Investments Limited, priority 2018, published 2026)",
  "settings": "for Nicotine flow across the skin: passive matrix-type patch containing 21 mg nicotine on human cadaver skin, average of test patches (n=4)",
  "method": "Experiments were carried out by applying passive matrix-type nicotine patches containing 21 mg of nicotine to human cadaver skin and then periodically heating and cooling the patches over a period of 20 hours. Controls with no heating and cooling were tested concurrently. The test patches were subject to 3 cycles of heating and cooling while the control patches were not. Patches were heated for 2 hours, cooled for 5 hours, heated for 2 hours, cooled for 4 hours, heated for 2 hours, and cooled. Nicotine delivery across the skin was measured and averaged for control patches (n=2) and test patches (n=4).",
  "note": "Read-outs that look alike come from different tables or passages of the source.",
  "data": [
    {"smiles": "CN1CCCC1c1cccnc1", "note": "(stereo not shown) [Nicotine]", "values": [
      {"measurement": "Nicotine flow across the skin", "setting": "first 2-hour heating period", "result": "around 4.9 mg/hr"},
      {"measurement": "Change of nicotine flow across the skin when heat was applied", "setting": "heated and cooled test patches, 3 cycles over 20 hours, human cadaver skin", "result": "increased"},
      {"measurement": "Nicotine flow across the skin", "setting": "second 2-hour heating period (after 5 hours cooling)", "result": "around 2.5 mg/hr"},
      {"measurement": "Nicotine flow across the skin", "setting": "third 2-hour heating period (after 4 hours cooling)", "result": "around 1.8 mg/hr"}
    ]}
  ]
}
